Laboratory results published in US20240116985A1, “STAPLED PEPTIDES AND METHODS THEREOF” (priority 2020, published 2024).
Converted amounts (≈) assume the structure as drawn. Where two headings read alike, the source gives them in different places.

Key:
[1] = target: T1, full-length beta-Catenin (Uniprot ID P35222) (Homo sapiens, UniProt P35222); experiment: Fluorescence polarization IC50 (beta-catenin / 5FAM-TCF4 10-53 competition); format: binding
T1 construct: 10 nM full-length beta-Catenin (Uniprot ID P35222)
T1 sequence (P35222 1-781): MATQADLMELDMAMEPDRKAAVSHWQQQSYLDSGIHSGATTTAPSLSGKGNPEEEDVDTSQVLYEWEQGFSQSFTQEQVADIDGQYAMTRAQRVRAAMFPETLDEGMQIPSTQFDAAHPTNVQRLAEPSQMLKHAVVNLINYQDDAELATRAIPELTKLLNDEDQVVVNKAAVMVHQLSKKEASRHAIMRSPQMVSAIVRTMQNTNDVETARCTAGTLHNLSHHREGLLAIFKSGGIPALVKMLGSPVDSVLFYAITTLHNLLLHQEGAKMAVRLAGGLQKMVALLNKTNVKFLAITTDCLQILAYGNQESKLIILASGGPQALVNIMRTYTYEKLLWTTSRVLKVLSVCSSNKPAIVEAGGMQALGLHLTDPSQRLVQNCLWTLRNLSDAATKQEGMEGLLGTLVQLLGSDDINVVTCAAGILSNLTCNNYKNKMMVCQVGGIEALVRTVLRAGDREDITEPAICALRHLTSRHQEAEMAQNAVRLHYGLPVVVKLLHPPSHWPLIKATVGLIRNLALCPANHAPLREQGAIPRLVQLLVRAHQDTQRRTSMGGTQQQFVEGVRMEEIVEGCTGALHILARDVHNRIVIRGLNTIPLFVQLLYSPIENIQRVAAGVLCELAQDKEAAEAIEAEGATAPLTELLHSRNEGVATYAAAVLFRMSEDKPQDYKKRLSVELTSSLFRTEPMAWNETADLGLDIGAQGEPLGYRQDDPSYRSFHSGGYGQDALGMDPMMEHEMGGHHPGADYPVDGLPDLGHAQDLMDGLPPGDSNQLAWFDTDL

[2] = CHI Log D procedure; format: physicochemical; settings: for CHI Log D: pH 7.4; for chromatographic logD: pH 7.4, CHI Log D
[3] = Solubility in PBS; format: physicochemical
Summary of the method: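 PBS sample ultracentrifuged; supernatant run on HPLC vs. 50 μM peptide in DMSO standard. Solubility = (PBS peak area / DMSO peak area) × 50 uM.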

[4] = fluorescence polarization, read-out: beta-Catenin FP IC50

CC[C@H](C)[C@@H]1NC(=O)[C@H](CC(=O)O)NC(=O)[C@]2(CC=CCCCC3(CCCC=CCCCCCC[C@@](C)(C(=O)N[C@@H](Cc4ccccc4)C(=O)N[C@@H](Cc4csc5ccccc45)C(=O)N[C@@H](CCC(N)=O)C(N)=O)NC(=O)[C@H](CCC(N)=O)NC(=O)[C@H](Cc4ccccc4)NC(=O)[C@H](Cc4c[nH]c5ccccc45)NC(=O)[C@H](C)NC(=O)[C@H](CCC(=O)O)NC(=O)[C@H](CC(=O)O)NC3=O)NC1=O)CCCN2C(C)=O (stereo partly drawn) [I-664, Ac-PL3-Asp-Ile-B5-Asp-Glu-Ala-Trp-Phe-Gln-S8-Phe-BztA-Gln-NH2]
IC50 [1, 4]: 996 nM | IC50 ([1]; read-out: FP EC50): 996 nM | CHI Log D [2]: 2.433 | Solubility [3]: 45 µM (≈ 89.9 µg/mL)

CC[C@H](C)[C@@H]1NC(=O)[C@H](CC(=O)O)NC(=O)[C@]2(CC=CCCCC3(CCCC=CCCCCCC[C@@](C)(C(=O)N[C@@H](Cc4ccccc4)C(=O)N[C@@H](Cc4csc5ccccc45)C(=O)N[C@@H](CCC(N)=O)C(N)=O)NC(=O)[C@H](CCC(N)=O)NC(=O)[C@H](Cc4ccccc4)NC(=O)[C@H](Cc4c[nH]c5ccccc45)NC(=O)[C@H](C)NC(=O)[C@H](CCC(=O)O)NC(=O)[C@H](CC(=O)O)NC3=O)NC1=O)CCCN2C(C)=O (stereo partly drawn) [I-665, Ac-PL3-Asp-Ile-B5-Asp-Glu-Ala-Trp-Phe-Gln-S8-Phe-BztA-Gln-NH2]
IC50 [1, 4]: 923 nM | IC50 ([1]; read-out: FP EC50): 923 nM | CHI Log D [2]: 2.448 | Solubility [3]: 47 µM (≈ 93.9 µg/mL)

CC(=O)N1CCC[C@]12CC=CCCCC1(CCCC=CCCCCCC[C@@](C)(C(=O)N[C@@H](Cc3ccsc3)C(=O)N[C@@H](Cc3csc4ccccc34)C(=O)N[C@@H](CCC(N)=O)C(N)=O)NC(=O)[C@H](CC(N)=O)NC(=O)[C@H](Cc3ccccc3)NC(=O)[C@H](C)NC(=O)[C@H](C)NC(=O)[C@H](CCC(=O)O)NC(=O)[C@H](CC(=O)O)NC1=O)NC(=O)[C@H](CC(C)(C)C)NC(=O)[C@H](CC(=O)O)NC2=O (stereo partly drawn) [I-682, Ac-PL3-Asp-Npg-B5-Asp-Glu-Ala-Ala-Phe-Asn-S8-3Thi-BztA-Gln-NH2]
IC50 [1, 4]: 41 nM | IC50 ([1]; read-out: FP EC50): 41 nM | CHI Log D [2]: 2.409 | Solubility [3]: 47 µM (≈ 88.8 µg/mL)

CC(=O)N1CCC[C@]12CC=CCCCC1(CCCC=CCCCOC(=O)N3CC[C@@](C(=O)N[C@@H](Cc4ccsc4)C(=O)N[C@@H](Cc4csc5ccccc45)C(=O)N[C@@H](Cc4c[nH]cn4)C(N)=O)(C3)NC(=O)[C@H](CC(N)=O)NC(=O)[C@H](Cc3ccccc3)NC(=O)[C@H](C)NC(=O)[C@H](C)NC(=O)[C@H](CCC(=O)O)NC(=O)[C@H](CC(=O)O)NC1=O)NC(=O)[C@H](CC(C)(C)C)NC(=O)[C@H](CC(=O)O)NC2=O (stereo partly drawn) [I-698, Ac-PL3-Asp-Npg-B5-Asp-Glu-Ala-Ala-Phe-Asn-PyrS2-3Thi-BztA-His-NH2]
IC50 [1, 4]: 5 nM | CHI Log D [2]: 2.153 | Solubility [3]: 43 µM (≈ 83.5 µg/mL)

CC[C@H](C)[C@@H]1NC(=O)[C@H](CC(=O)O)NC(=O)[C@]2(CC=CCCCC3(CCCC=CCCCCCC[C@@](C)(C(=O)N[C@@H](Cc4ccccc4)C(=O)N[C@@H](Cc4csc5ccccc45)C(=O)N[C@@H](CCC(N)=O)C(N)=O)NC(=O)[C@H](CC(N)=O)NC(=O)[C@H](Cc4ccccc4)NC(=O)[C@H](C)NC(=O)[C@H](C)NC(=O)[C@H](CN(CC(=O)O)CC(F)(F)F)NC(=O)[C@H](CC(=O)O)NC3=O)NC1=O)CCCN2C(C)=O (stereo partly drawn) [I-699, Ac-PL3-Asp-Ile-B5-Asp-TfeGA-Ala-Ala-Phe-Asn-S8-Phe-BztA-Gln-NH2]
IC50 [1, 4]: 43 nM | chromatographic logD [2]: 2.63 | Solubility [3]: 50 µM (≈ 98.3 µg/mL)

CC[C@H](C)[C@@H]1NC(=O)[C@H](CC(=O)O)NC(=O)[C@]2(CC=CCCCC3(CCCC=CCCCCCC[C@@](C)(C(=O)N[C@@H](Cc4ccsc4)C(=O)N[C@@H](Cc4csc5ccccc45)C(=O)N[C@@H](Cc4c[nH]cn4)C(N)=O)NC(=O)[C@H](CC(N)=O)NC(=O)[C@H](Cc4ccccc4)NC(=O)[C@H](C)NC(=O)[C@H](C)NC(=O)[C@H](CN(CC(=O)O)CC(F)(F)F)NC(=O)[C@H](CC(=O)O)NC3=O)NC1=O)CCCN2C(C)=O (stereo partly drawn) [I-702, Ac-PL3-Asp-Ile-B5-Asp-TfeGA-Ala-Ala-Phe-Asn-S8-3Thi-BztA-His-NH2]
IC50 [1, 4]: 76 nM | chromatographic logD [2]: 2.75 | Solubility ([3]; Solubility (uM)): 40 µM (≈ 79.3 µg/mL)

CC(=O)N1CCC[C@]12CC=CCCCC1(CCCC=CCCCCCC[C@@](C)(C(=O)N[C@@H](Cc3ccsc3)C(=O)N[C@@H](Cc3csc4ccccc34)C(=O)N[C@@H](Cc3c[nH]cn3)C(N)=O)NC(=O)[C@H](CC(N)=O)NC(=O)[C@H](Cc3ccccc3)NC(=O)[C@H](C)NC(=O)[C@H](C)NC(=O)[C@H](CN(CC(=O)O)CC(F)(F)F)NC(=O)[C@H](CC(=O)O)NC1=O)NC(=O)[C@H](CC(C)(C)C)NC(=O)[C@H](CC(=O)O)NC2=O (stereo partly drawn) [I-705, Ac-PL3-Asp-Npg-B5-Asp-TfeGA-Ala-Ala-Phe-Asn-S8-3Thi-BztA-His-NH2]
IC50 [1, 4]: 58 nM | chromatographic logD [2]: 2.89 | Solubility ([3]; Solubility (uM)): 25 µM (≈ 49.9 µg/mL)

CC(=O)N1CCC[C@]12CC=CCCCC1(CCCC=CCCCCCC[C@@](C)(C(=O)N[C@@H](Cc3ccccc3)C(=O)N[C@@H](Cc3csc4ccccc34)C(=O)N[C@@H](CCC(N)=O)C(N)=O)NC(=O)[C@H](CC(N)=O)NC(=O)[C@H](Cc3ccccc3)NC(=O)[C@H](C)NC(=O)[C@H](C)NC(=O)[C@H](CN(CC(=O)O)CC(F)(F)F)NC(=O)[C@H](CC(=O)O)NC1=O)NC(=O)[C@H](CC1CCCCC1)NC(=O)[C@H](CC(=O)O)NC2=O (stereo partly drawn) [I-706, Ac-PL3-Asp-Cha-B5-Asp-TfeGA-Ala-Ala-Phe-Asn-S8-Phe-BztA-Gln-NH2]
IC50 [1, 4]: 57 nM | chromatographic logD [2]: 2.99 | Solubility ([3]; Solubility (uM)): 48 µM (≈ 96.3 µg/mL)

CC(=O)N1CCC[C@]12CC=CCCCC1(CCCC=CCCCCCC[C@@](C)(C(=O)N[C@@H](Cc3ccsc3)C(=O)N[C@@H](Cc3csc4ccccc34)C(=O)N[C@@H](CCC(N)=O)C(N)=O)NC(=O)[C@H](CC(N)=O)NC(=O)[C@H](Cc3ccccc3)NC(=O)[C@H](C)NC(=O)[C@H](C)NC(=O)[C@H](CN(CC(=O)O)CC(F)(F)F)NC(=O)[C@H](CC(=O)O)NC1=O)NC(=O)[C@H](CC1CCCCC1)NC(=O)[C@H](CC(=O)O)NC2=O (stereo partly drawn) [I-707, Ac-PL3-Asp-Cha-B5-Asp-TfeGA-Ala-Ala-Phe-Asn-S8-3Thi-BztA-Gln-NH2]
IC50 [1, 4]: 46 nM | IC50 ([1]; read-out: FP EC50): 46 nM | CHI Log D [2]: 2.963 | Solubility [3]: 48 µM (≈ 96.6 µg/mL)

CC(=O)N1CCC[C@]12CC=CCCCC1(CCCC=CCCCCCC[C@@](C)(C(=O)N[C@@H](Cc3ccsc3)C(=O)N[C@@H](Cc3csc4ccccc34)C(=O)N[C@@H](Cc3c[nH]cn3)C(N)=O)NC(=O)[C@H](CC(N)=O)NC(=O)[C@H](Cc3ccccc3)NC(=O)[C@H](C)NC(=O)[C@H](C)NC(=O)[C@H](CN(CC(=O)O)CC(F)(F)F)NC(=O)[C@H](CC(=O)O)NC1=O)NC(=O)[C@H](CC1CCCCC1)NC(=O)[C@H](CC(=O)O)NC2=O (stereo partly drawn) [I-709, Ac-PL3-Asp-Cha-B5-Asp-TfeGA-Ala-Ala-Phe-Asn-S8-3Thi-BztA-His-NH2]
IC50 [1, 4]: 54 nM | chromatographic logD [2]: 3.11 | Solubility [3]: 10 µM (≈ 20.2 µg/mL)

CC[C@H](C)[C@@H]1NC(=O)[C@H](CC(=O)O)NC(=O)[C@]2(CC=CCCCC3(CCCC=CCCCCCC[C@@](C)(C(=O)N[C@@H](Cc4ccccc4)C(=O)N[C@@H](Cc4csc5ccccc45)C(=O)N[C@@H](CCC(N)=O)C(N)=O)NC(=O)[C@H](CCC(N)=O)NC(=O)[C@H](Cc4ccccc4)NC(=O)[C@H](C)NC(=O)[C@H](C)NC(=O)[C@H](CCC(=O)O)NC(=O)[C@H](CC(=O)O)NC3=O)NC1=O)CCCN2S(C)(=O)=O (stereo partly drawn) [I-710, MeSO2-PL3-Asp-Ile-B5-Asp-Glu-Ala-Ala-Phe-Gln-S8-Phe-BztA-Gln-NH2]
IC50 [1, 4]: 73 nM | IC50 ([1]; read-out: FP EC50): 73 nM | CHI Log D [2]: 2.143 | Solubility [3]: 45 µM (≈ 86.4 µg/mL)

CC[C@H](C)[C@@H]1NC(=O)[C@H](CC(=O)O)NC(=O)[C@]2(CC=CCCCC3(CCCC=CCCCCCC[C@@](C)(C(=O)N[C@@H](Cc4ccccc4)C(=O)N[C@@H](Cc4csc5ccccc45)C(=O)N[C@@H](CCC(N)=O)C(N)=O)NC(=O)[C@H](CCC(N)=O)NC(=O)[C@H](Cc4ccccc4)NC(=O)[C@H](C)NC(=O)[C@H](C)NC(=O)[C@H](CCC(=O)O)NC(=O)[C@H](CC(=O)O)NC3=O)NC1=O)CCCN2S(C)(=O)=O (stereo partly drawn) [I-711, MeSO2-PL3-Asp-Ile-B5-Asp-Glu-Ala-Ala-Phe-Gln-S8-Phe-BztA-Gln-NH2]
IC50 [1, 4]: 88 nM | IC50 ([1]; read-out: FP EC50): 88 nM | CHI Log D [2]: 2.132 | Solubility [3]: 48 µM (≈ 92.1 µg/mL)
